# PubChem BioAssay (NCI)
#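 In this assay, cells in 96-well plates receive the compound at five concentrations for 48 hours. Endpoints are linearly interpolated between the surrounding concentrations. TGI is the concentration that stops growth completely.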
# Tests used:
# Assay in all cases: NCI-60 cell line screen, 48 h
# [1] = test system: OVCAR-8 ovarian
# [2] = test system: HOP-62 NSCLC
# [3] = test system: SNB-19 CNS
# [4] = test system: CAKI-1 renal
# [5] = test system: A498 renal
# [6] = test system: SF-295 CNS
# [7] = test system: RXF 393 renal
# [8] = test system: SR leukemia
# [9] = test system: HCT-15 colon
# [10] = test system: HT29 colon
# [11] = test system: HOP-92 NSCLC
# [12] = test system: OVCAR-3 ovarian
# [13] = test system: UACC-257 melanoma
# [14] = test system: IGROV1 ovarian
# [15] = test system: KM12 colon
# [16] = test system: COLO 205 colon
# [17] = test system: OVCAR-5 ovarian
# [18] = test system: KM20L2 colon
# [19] = test system: SK-MEL-28 melanoma
# [20] = test system: XF 498 CNS
# [21] = test system: DMS 273 small cell lung
# [22] = test system: ACHN renal
# [23] = test system: HL-60(TB) leukemia
# [24] = test system: HOP-18 NSCLC
# [25] = test system: SK-MEL-2 melanoma
# [26] = test system: SNB-75 CNS
# [27] = test system: 786-0 renal
# [28] = test system: NCI-H460 lung
# [29] = test system: SK-MEL-5 melanoma
# [30] = test system: SW-620 colon
# [31] = test system: NCI-H23 lung
# [32] = test system: SNB-78 CNS
# [33] = test system: HCT-116 colon
# [34] = test system: DLD-1 colon
# [35] = test system: K-562 leukemia
# [36] = test system: MALME-3M melanoma
# [37] = test system: RPMI-8226 leukemia
# [38] = test system: CCRF-CEM leukemia
# [39] = test system: SF-539 CNS
# [40] = test system: SN12C renal
# [41] = test system: SF-268 CNS
# [42] = test system: U251 CNS
# [43] = test system: TK-10 renal
# [44] = test system: M19-MEL melanoma
# [45] = test system: LOX IMVI melanoma
# [46] = test system: A549 NSCLC
# [47] = test system: EKVX NSCLC
# [48] = test system: UACC-62 melanoma
# [49] = test system: OVCAR-4 ovarian
# [50] = test system: SK-OV-3 ovarian
# [51] = test system: MOLT-4 leukemia
# [52] = test system: NCI-H522 lung
# [53] = test system: M14 melanoma
# [54] = test system: HCC-2998 colon
# [55] = test system: DMS 114 small cell lung
# [56] = test system: RXF-631 renal
# [57] = test system: LXFL 529 NSCLC
# [58] = test system: NCI-H226 lung
# [59] = test system: UO-31 renal
compound,measurement,setting,value
COc1ccc(C(=O)Nc2ccccc2C#N)cc1,TGI,[1],> 100 µM
same,TGI,[2],> 100 µM
same,TGI,[3],> 100 µM
same,TGI,[4],> 100 µM
same,TGI,[5],> 100 µM
same,TGI,[6],> 100 µM
same,TGI,[7],> 100 µM
same,TGI,[8],> 100 µM
same,TGI,[9],> 100 µM
same,TGI,[10],> 100 µM
same,TGI,[11],> 100 µM
same,TGI,[12],> 100 µM
same,TGI,[13],> 100 µM
same,TGI,[14],> 100 µM
same,TGI,[15],> 100 µM
same,TGI,[16],> 100 µM
same,TGI,[17],> 100 µM
same,TGI,[18],> 100 µM
same,TGI,[19],> 100 µM
same,TGI,[20],> 100 µM
same,TGI,[21],> 100 µM
same,TGI,[22],> 100 µM
same,TGI,[23],> 100 µM
same,TGI,[24],> 100 µM
same,TGI,[25],> 100 µM
same,TGI,[26],> 100 µM
same,TGI,[27],> 100 µM
same,TGI,[28],> 100 µM
same,TGI,[29],> 100 µM
same,TGI,[30],> 100 µM
same,TGI,[31],> 100 µM
same,TGI,[32],> 100 µM
same,TGI,[33],> 100 µM
same,TGI,[34],> 100 µM
same,TGI,[35],> 100 µM
same,TGI,[36],> 100 µM
same,TGI,[37],> 100 µM
same,TGI,[38],> 100 µM
same,TGI,[39],> 100 µM
same,TGI,[40],> 100 µM
same,TGI,[41],> 100 µM
same,TGI,[42],> 100 µM
same,TGI,[43],> 100 µM
same,TGI,[44],> 100 µM
same,TGI,[45],> 100 µM
same,TGI,[46],> 100 µM
same,TGI,[47],> 100 µM
same,TGI,[48],> 100 µM
same,TGI,[49],> 100 µM
COC1C2c3ccccc3C(C#N)(Cc3ccc4c(c32)OCO4)N1C(=O)c1ccccc1 (configuration not stated),TGI,[1],> 100 µM
same,TGI,[2],> 100 µM
same,TGI,[3],> 100 µM
same,TGI,[50],> 100 µM
same,TGI,[51],> 100 µM
same,TGI,[6],> 100 µM
same,TGI,[7],> 100 µM
same,TGI,[8],> 100 µM
same,TGI,[9],> 100 µM
same,TGI,[52],> 100 µM
same,TGI,[10],> 100 µM
same,TGI,[53],> 100 µM
same,TGI,[11],> 100 µM
same,TGI,[12],> 100 µM
same,TGI,[13],> 100 µM
same,TGI,[14],> 100 µM
same,TGI,[15],> 100 µM
same,TGI,[16],82.6 µM
same,TGI,[17],> 100 µM
same,TGI,[18],> 100 µM
same,TGI,[19],> 100 µM
same,TGI,[20],98.1 µM
same,TGI,[54],> 100 µM
same,TGI,[21],98.3 µM
same,TGI,[22],> 100 µM
same,TGI,[55],> 100 µM
same,TGI,[23],> 100 µM
same,TGI,[24],> 100 µM
same,TGI,[25],> 100 µM
same,TGI,[26],> 100 µM
same,TGI,[27],> 100 µM
same,TGI,[56],> 100 µM
same,TGI,[28],> 100 µM
same,TGI,[29],31.5 µM
same,TGI,[30],> 100 µM
same,TGI,[31],> 100 µM
same,TGI,[57],> 100 µM
same,TGI,[32],> 100 µM
same,TGI,[33],> 100 µM
same,TGI,[34],> 100 µM
same,TGI,[35],> 100 µM
same,TGI,[36],> 100 µM
same,TGI,[37],> 100 µM
same,TGI,[38],> 100 µM
same,TGI,[39],> 100 µM
same,TGI,[58],85.9 µM
same,TGI,[40],> 100 µM
same,TGI,[41],> 100 µM
same,TGI,[42],> 100 µM
same,TGI,[59],> 100 µM
same,TGI,[43],> 100 µM
same,TGI,[45],> 100 µM
same,TGI,[47],> 100 µM
same,TGI,[48],> 100 µM
Cc1ccc(C)c(NC(=O)CCC(=O)CC(=O)C(C)(C)C)c1,TGI,[1],> 100 µM
same,TGI,[2],> 100 µM
same,TGI,[3],> 100 µM
same,TGI,[4],> 100 µM
same,TGI,[50],> 100 µM
same,TGI,[5],> 100 µM
same,TGI,[51],> 100 µM
same,TGI,[7],> 100 µM
same,TGI,[9],> 100 µM
same,TGI,[52],> 100 µM
same,TGI,[10],> 100 µM
same,TGI,[53],> 100 µM
same,TGI,[11],> 100 µM
same,TGI,[12],> 100 µM
same,TGI,[13],> 100 µM
same,TGI,[14],> 100 µM
same,TGI,[15],> 100 µM
same,TGI,[16],> 100 µM
same,TGI,[17],> 100 µM
same,TGI,[18],> 100 µM
same,TGI,[19],> 100 µM
same,TGI,[20],> 100 µM
same,TGI,[54],> 100 µM
same,TGI,[21],> 100 µM
same,TGI,[22],> 100 µM
same,TGI,[55],> 100 µM
same,TGI,[24],> 100 µM
same,TGI,[25],> 100 µM
same,TGI,[26],> 100 µM
same,TGI,[27],> 100 µM
same,TGI,[28],> 100 µM
same,TGI,[29],> 100 µM
same,TGI,[30],> 100 µM
same,TGI,[31],> 100 µM
same,TGI,[57],> 100 µM
same,TGI,[32],> 100 µM
same,TGI,[33],> 100 µM
same,TGI,[34],> 100 µM
same,TGI,[35],> 100 µM
same,TGI,[36],> 100 µM
same,TGI,[37],> 100 µM
same,TGI,[38],> 100 µM
same,TGI,[39],> 100 µM
same,TGI,[40],> 100 µM
same,TGI,[41],> 100 µM
same,TGI,[42],> 100 µM
same,TGI,[59],> 100 µM
same,TGI,[43],> 100 µM
same,TGI,[44],> 100 µM
same,TGI,[45],> 100 µM
same,TGI,[46],> 100 µM
same,TGI,[47],> 100 µM
same,TGI,[48],> 100 µM
same,TGI,[49],> 100 µM
